From patent US10286092B2, “Detecting a therapeutic cell” (UCL Business PLC, priority 2015, dated 2019)
Positions count from the first letter of the chain named. In names and notes the source's numbering stands. Several values for one entry are separate records, joined by “and”; a condition that tells them apart may be missing. Equal values may be shown once. Entries after “also recorded” stand apart in the source; their conditions may differ.

Columns and labels:
[1] = Binding of 123I-FP-CIT by hDAT and hDAT variant proteins from different constructs; settings: for binding of [123I]-FP-CIT by hDAT variant: compared to wild-type hDAT, FIG. 7
Experimental: (§1) Reporter protein binding capabilities was assessed in a method previously described. Briefly, 1×10^6 all hDAT expressing T-cells and the non-transduced control cells were incubated at 37° C. with 7.4 kBq ^123I-FP-CIT (GE, Healthcare) for 30 mins. At each time point, cells were rapidly washed twice with 500 μL ice-cold PBS and the supernatant collected. Cell pellets were re-suspended in 1 mL PBS. ^123I-FP-CIT binding in cells and medium was measured using a gamma counter (WIZARD^2, PerkinElmer, UK). To determine the non-specific binding of the ^123I-FP-CIT in hDAT (+) cells, transduced cells and non-transduced cells were incubated with 50 μM of β-CIT-FP (ABX) for 5 min. ^123I-FP-CIT cells were subsequently prepared for gamma counting as mentioned above. All experiments were performed in triplicates and repeated ≥twice. All results are given as mean±standard deviation of the mean (SD). The data was analysed using one way analysis of variance (ANOVA) followed by the Tukey's HSD test with the IBM SPSS software.

hDAT [2] = biological target: T1, hDAT (Homo sapiens, UniProt Q01959); assay: In vitro radiosubstrate binding assay, hDAT expressing T-cells
T1 construct: expressed in transfected cells; host or cells: SupT1 human T-cell line, retrovirally transduced with SFG.hDAT.I.CD34 (co-transduced with FLuc for in vivo work)
T1 sequence (Q01959 whole entry): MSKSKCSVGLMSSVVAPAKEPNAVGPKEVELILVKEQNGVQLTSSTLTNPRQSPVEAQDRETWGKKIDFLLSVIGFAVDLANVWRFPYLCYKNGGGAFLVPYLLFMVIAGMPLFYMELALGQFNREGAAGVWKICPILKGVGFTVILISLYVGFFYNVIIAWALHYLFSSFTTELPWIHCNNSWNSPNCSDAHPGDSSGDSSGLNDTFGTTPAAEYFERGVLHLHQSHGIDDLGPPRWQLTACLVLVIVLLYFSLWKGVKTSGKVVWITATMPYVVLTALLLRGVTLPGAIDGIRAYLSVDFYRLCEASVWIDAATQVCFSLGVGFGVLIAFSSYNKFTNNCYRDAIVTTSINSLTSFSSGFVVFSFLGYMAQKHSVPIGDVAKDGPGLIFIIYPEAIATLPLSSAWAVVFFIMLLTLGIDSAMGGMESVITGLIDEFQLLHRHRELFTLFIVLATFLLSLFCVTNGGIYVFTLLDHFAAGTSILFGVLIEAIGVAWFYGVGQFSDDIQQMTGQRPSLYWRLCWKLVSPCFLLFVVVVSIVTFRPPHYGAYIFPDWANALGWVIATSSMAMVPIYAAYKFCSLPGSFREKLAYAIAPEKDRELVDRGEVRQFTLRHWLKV
Experimental: as §1

[3] = test system: control non-transduced (NT) SupT1 cells; assay: In vitro radiosubstrate binding assay, non-transduced control cells; design: species or system human; settings: 7.4 kBq, 37° C., 30 min
Experimental: as §1

hDAT [4] = biological target: T1, hDAT; assay: SPECT/CT imaging of hDAT-positive brain xenografts in NSG mice; type: in vivo; settings: for specific to non-specific binding ratio hDAT: cerebellum: NSG mice n=4
Experimental: All animal procedures were carried out in accordance with the UK Animals (Scientific Procedures) 1986 Act and institutional ethics regulation. NSG mice were bred in-house and kept according to institutional guidelines. Male mice 6-10 weeks old were injected with 2 mg/kg body weight of 5% carprofen (Norbrook) and anaesthetised with 3-5% Isoflurane (ABBOTT, UK) in an induction chamber. Animals were placed in a stereotactic frame (David Kopf Instruments) with an anaesthesia head holder to deliver 3% isoflurane. A sagittal incision over the parieto-occipital bone using a sterile scalpel (Swann Morton Ltd) was made and a blunt ended Hamilton (75N, 26s/2″/2′5 ul) syringe with SupT1/hDAT.I.CD34 was placed 1.5 mm lateral and 1 mm anterior of bregma. The needle was lowered 4 mm in the brain through a burr hole and retracted 1 mm to create a small reservoir where the cells (1×10^4 in a 3 μl volume) were injected.
(§2) Animals were administered with 1.5 mmol/kg of the thyroid blocking agent potassium perchlorate (Sigma Aldrich, USA) intraperitoneally one hour prior to imaging. Animals were imaged with a NanoSPECT/CT small animal in vivo scanner (Mediso, Hungary) consisting of a rotating double headed camera (company, country). 1.2 mm pinhole mouse apertures were used. Imaging was performed under isoflurane (1.5-2%) and the body temperature was maintained at 37° C. using a heated animal bed (Minerve, France). For the kinetic study, animals were administered with an average of 17.25±1.22 MBq of ^123I-FP-CIT i.v. and 15 min. brain scans were acquired day 25 post tumour inoculation at 15 min. 2 h, 4 h, 6 h and 8 h. Images were reconstructed using HiSPECT software (InviCRO, USA) and image processing analysis was performed (VivoQuant Software; InviCRO, USA).
Time activity profiles were generated evaluate the hDAT reporter system in vivo. Regions of interest (ROIs) for the hDAT expressing xenografts, cerebellum (chose background region) and striatum were drawn on the SPECT/MR/CT coregistered data. The percentage in injected dose per mm^3 (% ID/mm^3) was calculated by; injected dose (MBq)/counts in the whole body (MBq)/volume of the ROI (mm^3) to determine the peak uptake time and the optimum imaging window. A method based on the striatal binding ratio was utilised to determine specific-to-nondisplaceable binding ratios previously described as indicative of the binding potential at the time of binding equilibrium^6,7. The binding ratios were calculated by determining the mean counts per pixel in the specific region (hDAT expressing xenograft for the hDAT: cerebellum and hDAT: striatum ratios) divided by the mean counts per pixel in the nonspecific region.

[5] = test system: non-transduced SupT1 cells; assay: SPECT imaging of control animals injected with non-transduced SupT1 cells; type: in vivo, mouse; settings: intracranially injected non-transduced SupT1 cells
Experimental: as §2

DAT = biological target: T2, DAT (Mus musculus, UniProt Q61327); assay: SPECT/CT imaging of striatum (endogenous DAT) in NSG mice; type: in vivo; settings: NSG mice n=4
T2 construct: the striatum (region with high endogenous expression of DAT); from tissue; host or cells: striatum of living NSG mice (in vivo SPECT)
T2 sequence (Q61327 whole entry): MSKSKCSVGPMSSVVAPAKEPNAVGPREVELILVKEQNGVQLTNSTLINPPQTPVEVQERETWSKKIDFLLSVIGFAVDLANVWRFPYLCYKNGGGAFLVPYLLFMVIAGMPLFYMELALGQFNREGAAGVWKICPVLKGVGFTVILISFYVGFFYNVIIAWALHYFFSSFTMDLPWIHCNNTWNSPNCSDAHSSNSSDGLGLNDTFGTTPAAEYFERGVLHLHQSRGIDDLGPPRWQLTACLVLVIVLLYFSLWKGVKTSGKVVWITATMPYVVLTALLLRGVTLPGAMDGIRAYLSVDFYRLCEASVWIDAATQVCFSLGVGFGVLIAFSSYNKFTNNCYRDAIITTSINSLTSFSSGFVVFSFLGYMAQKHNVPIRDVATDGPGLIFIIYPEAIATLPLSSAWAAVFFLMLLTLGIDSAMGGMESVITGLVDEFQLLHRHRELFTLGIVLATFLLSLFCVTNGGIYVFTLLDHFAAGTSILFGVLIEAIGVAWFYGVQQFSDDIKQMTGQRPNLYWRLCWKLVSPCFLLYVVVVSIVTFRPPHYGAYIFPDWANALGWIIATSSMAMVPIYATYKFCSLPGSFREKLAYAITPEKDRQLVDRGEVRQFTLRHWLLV
Experimental: as §2
Time activity profiles were generated evaluate the hDAT reporter system in vivo. […] The percentage in injected dose per mm^3 (% ID/mm^3) was calculated by; injected dose (MBq)/counts in the whole body (MBq)/volume of the ROI (mm^3) to determine the peak uptake time and the optimum imaging window. […] The binding ratios were calculated by determining the mean counts per pixel in the specific region (hDAT expressing xenograft for the hDAT: cerebellum and hDAT: striatum ratios) divided by the mean counts per pixel in the nonspecific region.

hDAT [6] = biological target: T1, hDAT; assay: PET/CT imaging of hDAT positive cells in mouse brain; type: in vivo; settings: i.v.
Experimental: Animals were administered with 1.5 mmol/kg of the thyroid blocking agent potassium perchlorate (Sigma Aldrich, USA) intraperitoneally one hour prior to imaging. Animals were imaged with a PET/CT small animal in vivo scanner (Mediso, Hungary). Imaging was performed under isoflurane (1.5-2%) and the body temperature was maintained at 37° C. using a heated animal bed (Minerve, France). Four weeks post tumour inoculation, animals were administered with 5 MBq of ^18F-FP-CIT i.v. and brain scans were acquired 30 min post injection. A high-resolution CT was acquired immediately following […] imaging. Images were reconstructed using HiSPECT software (InviCRO, USA) and image processing analysis was performed (VivoQuant Software; InviCRO, USA).

[7] = after 4 h post i.v. injection (constant)

Q: For RQR8-hDAT: hDAT tagged with RQR8, which “binding of [123I]-FP-CIT by hDAT variant” value [1] is on record?
A: increased levels

Q: What does the source list for `COC(=O)[C@H]1[C@@H](c2ccc(I)cc2)C[C@@H]2CC[C@H]1N2CCCF` [[I]-FP-CIT]?
A: % [123I]-FP-CIT binding in the presence of [I]-FP-CIT (hDAT [2]; SupT1/SFG.hDAT.I.CD34 cells co-incubated with cold compound, 50 μM): 1.10±0.22%; fold reduction of [123I]-FP-CIT binding in the presence of [I]-FP-CIT (hDAT [2]; SupT1/SFG.hDAT.I.CD34 cells, cold compound 50 μM, p<0.001): 32 fold; inhibition of [123I]-FP-CIT binding by cold compound (in words) (hDAT [2]; hDAT positive T-cells, co-incubation with cold compound 50 μM): complete binding inhibition; also recorded: completely abolished

Q: For `COC(=O)[C@H]1[C@@H](c2ccc(I)cc2)C[C@@H]2CC[C@H]1N2CCCF` [[^123I]-FP-CIT, [I-^123] N-ω-fluoropropyl-2β-carbomethoxy-3β-(4-iodophenyl) nortropane], which “percentage [123I]-FP-CIT binding” value [3] is on record?
A: 1.41±0.40%

Q: What about the “percentage [123I]-FP-CIT binding” value (hDAT [2]; SupT1/SFG.hDAT.I.CD34 cells, 7.4 kBq, 37° C., 30 min) of the same molecule?
A: 35.10±5.24%

Q: What about the “fold greater % [123I]-FP-CIT binding in SupT1/SFG.hDAT.I.CD34 compared to control cells” value (hDAT [2]; hDAT cells vs non-transduced SupT1 cells) of the same molecule?
A: 25 fold and 27 fold

Q: What about the “specific to non-specific binding ratio hDAT: cerebellum” value (hDAT [4]; 2 h post i.v. injection (peak)) of the same molecule?
A: 5.73±1.75

Q: And the “optimum imaging time post injection” value (hDAT [4]; SupT1/SFG.hDAT.I.CD34 xenografts, SPECT)?
A: 2 h

Q: And the “specific to non-specific binding ratio hDAT: cerebellum” value (hDAT [4]; [7])?
A: 4.09±0.38

Q: What about the “co-localisation of SPECT signal with MR contrast at xenograft site” value (hDAT [4]; co-registered SPECT-MR-CT, 2 h post i.v. injection) of the same molecule?
A: good co-localisation; also recorded: good correlation

Q: And the “time post radiotracer injection at which hDAT-positive xenografts were visualised by SPECT” value (hDAT [4]; dynamic SPECT at 15 min, 2 h, 4 h, 6 h)?
A: as early as 15 min and up to 6 hr

Q: What about the “SPECT signal in control animals” value [5] of the same molecule?
A: non-detectable

Q: And the “specific to non-specific binding ratio striatum: cerebellum” value (DAT; 2 h post i.v. injection (peak))?
A: 6.56±2.40

Q: And the “specific to non-specific binding ratio striatum: cerebellum” value (DAT; [7])?
A: 4.08±0.60

Q: For `COC(=O)[C@H]1[C@@H](c2ccc(I)cc2)C[C@@H]2CC[C@H]1N2CCC[18F]` [^18F-FP-CIT, [^18F] fluoropropyl-carbomethoxy-iodophenyl-nortropane], which “detection of hDAT positive cells by PET/CT” value (hDAT [6]) is on record?
A: could also be detected

B1: hDAToptD313N: hDAT including a D313N mutation (protein, UniProt Q01959 1-620, looked up, variant D313N)
Sodium-dependent dopamine …: MSKSKCSVGLMSSVVAPAKEPNAVGPKEVELILVKEQNGVQLTSSTLTNPRQSPVEAQDRETWGKKIDFLLSVIGFAVDLANVWRFPYLCYKNGGGAFLVPYLLFMVIAGMPLFYMELALGQFNREGAAGVWKICPILKGVGFTVILISLYVGFFYNVIIAWALHYLFSSFTTELPWIHCNNSWNSPNCSDAHPGDSSGDSSGLNDTFGTTPAAEYFERGVLHLHQSHGIDDLGPPRWQLTACLVLVIVLLYFSLWKGVKTSGKVVWITATMPYVVLTALLLRGVTLPGAIDGIRAYLSVDFYRLCEASVWINAATQVCFSLGVGFGVLIAFSSYNKFTNNCYRDAIVTTSINSLTSFSSGFVVFSFLGYMAQKHSVPIGDVAKDGPGLIFIIYPEAIATLPLSSAWAVVFFIMLLTLGIDSAMGGMESVITGLIDEFQLLHRHRELFTLFIVLATFLLSLFCVTNGGIYVFTLLDHFAAGTSILFGVLIEAIGVAWFYGVGQFSDDIQQMTGQRPSLYWRLCWKLVSPCFLLFVVVVSIVTFRPPHYGAYIFPDWANALGWVIATSSMAMVPIYAAYKFCSLPGSFREKLAYAIAPEKDRELVDRGEVRQFTLRHWLKV
Q: For B1, which “binding of [123I]-FP-CIT by hDAT variant” value [1] is on record?
A: increased levels

B2: hDAT: human dopamine transporter expressed from tricistronic construct RQR8.2A.aCD19.2A.hDAT_opt (protein)
chain: B1 Sodium-dependent dopamine … with N313D
modifications: hDAT protein sequence
Q: With B2 as the molecule, how does the “binding of [123I]-FP-CIT by hDAT co-expressed with CD19 CAR” value ([1]; hDAT expressed from CD19 CAR-hDAT tricistronic construct, FIG. 8C) read?
A: able to bind

B3: dhDATopt: truncated hDAT, probably lacking the 49 N-terminal amino acids compared to wild-type hDAT (protein)
chain: MSKSKCSVGLMSSVVAPAKEPNAVGPKEVELILVKEQNGVQLTSSTLTNPRQSPVEAQDRETWGKKIDFLLSVIGFAVDLANVWRFPYLCYKNGGGAFLVPYLLFMVIAGMPLFYMELALGQFNREGAAGVWKICPILKGVGFTVILISLYVGFFYNVIIAWALHYLFSSFTTELPWIHCNNSWNSPNCSDAHPGDSSGDSSGLNDTFGTTPAAEYFERGVLHLHQSHGIDDLGPPRWQLTACLVLVIVLLYFSLWKGVKTSGKVVWITATMPYVVLTALLLRGVTLPGAIDGIRAYLSVDFYRLCEASVWIDAATQVCFSLGVGFGVLIAFSSYNKFTNNCYRDAIVTTSINSLTSFSSGFVVFSFLGYMAQKHSVPIGDVAKDGPGLIFIIYPEAIATLPLSSAWAVVFFIMLLTLGIDSAMGGMESVITGLIDEFQLLHRHRELFTLFIVLATFLLSLFCVTNGGIYVFTLLDHFAAGTSILFGVLIEAIGVAWFYGVGQFSDDIQQMTGQRPSLYWRLCWKLVSPCFLLFVVVVSIVTFRPPHYGAYIFPDWANALGWVIATSSMAMVPIYAAYKFCSLPGSFREKLAYAIAPEKDRE
modifications: dhDATopt_d protein sequence
notes: truncated hDAT, probably lacking the 49 N-terminal amino acids compared to wild-type hDAT
Q: With B3 as the molecule, how does the “binding of [123I]-FP-CIT by hDAT variant” value [1] read?
A: able to bind
